Data set [1] concerns the target T1, serotonin 5-HT1A receptor (Rattus norvegicus, UniProt P19327).
T1 construct: host or cells: rat brain in vivo (dorsal raphe, hippocampus)
T1 sequence (P19327 1-422): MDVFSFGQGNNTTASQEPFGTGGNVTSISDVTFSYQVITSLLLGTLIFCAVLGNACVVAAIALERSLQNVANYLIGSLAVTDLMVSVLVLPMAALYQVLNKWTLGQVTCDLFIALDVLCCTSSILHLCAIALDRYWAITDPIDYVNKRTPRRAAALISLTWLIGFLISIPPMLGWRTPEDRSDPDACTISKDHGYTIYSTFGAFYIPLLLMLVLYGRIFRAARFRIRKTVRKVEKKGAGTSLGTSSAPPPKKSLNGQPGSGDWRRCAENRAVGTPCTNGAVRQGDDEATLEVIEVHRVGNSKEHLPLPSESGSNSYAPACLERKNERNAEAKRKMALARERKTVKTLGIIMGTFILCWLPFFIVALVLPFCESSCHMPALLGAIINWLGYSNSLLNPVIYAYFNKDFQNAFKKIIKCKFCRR
Particulars: rats, intravenous infusions to steady-state plasma levels, cited from earlier work.

The target in data set [2] is human recombinant dopamine D3 receptor (Homo sapiens, UniProt P35462). Particulars: saturating concentrations of dopamine; read-out: D3 efficacy IC50 ± SEM; cited from earlier work.
In data set [3] the test system is L-DOPA induced dyskinesia (LID) model rats. As to the kind of experiment: L-DOPA induced AIMs in 6-OHDA lesioned LID model rats. The format is in vivo, rat. An excerpt:
Animals: 80 experimentally-naïve, male, 9 weeks old Sprague-Dawley rats at body weight of 200 to 250 g arrive at the laboratory at least 1 week prior to behavioural testing. Rats were housed in groups of n=2/cage. Animals had ad libitum access to standard rodent chow and water. Animal housing and testing rooms were maintained under controlled environmental conditions and were within close proximity of each other. Animal housing rooms were on a 12-hour light-dark cycle with lights on at 6:00 AM and maintained at 70° F./21° C. (range: 68-72° F./20-22° C.) with a humidity range of 20-40%. Testing rooms were maintained at 68-72° F. with a humidity range of 20-40%. DA (dopamine)-denervating lesions were performed by unilateral injection of 6-OHDA in the ascending nigrostriatal pathway. Rats were anesthetized with pentobarbital sodium 40 mg/kg (i.p.) and positioned in a stereotactic frame. 6-OHDA was injected into the right ascending DA bundle at the following coordinates relative to bregma and dural surface: A (anterior-posterior), L (lateral), V (dorsoventral): A −1.8, L −2.0, V −8.6, tooth bar 0.0.
The neurotoxin injections were performed at a rate of 1 ul/min, and the injection cannula is left in place for an additional 2-3 min thereafter. Two weeks after surgery, contralateral full body turns were recorded over 30 min, following s.c. injection of 0.5 mg/kg of apomorphine sulfate. The animals were placed in plastic Perspex bowls (30 cm in diameter) and the rotational behavior (360° turns) is recorded by an automated rotometer for […] after the s.c. injection of 0.5 mg/kg of apomorphine sulfate. Apomorphine (0.5 mg/kg, s.c.) induced contralateral rotation in unilateral 6-OHDA lesioned rats. 73 rats with rotations ≥180/30 min, indicating >90% DA lesion in nigrostriatal pathway, were chosen as the PD model rats for chronic L-DOPA treatment.
Starting one day after the apomorphine-induced rotation test, 6-OHDA-lesioned rats were treated with daily L-DOPA (Sigma-Aldrich, Germany) (8 mg/kg plus benserazide 15 mg/kg, s.c.) for 21 days. Rats were placed individually in transparent plastic cages without bedding material and scored every 20 min following the injection of L-DOPA for the entire time course of dyskinesias (120 min). The AIMs were classified into four subtypes according to their topographic distributions such as Locomotive, Forelimb, Axial and Orolingual behaviors. The severity of each AIM subtype was assessed by using scores from 0 to 4 (1: occasional, i.e. present less than 50% of the time; 2: frequent, i.e. present more than 50% of the time; 3: continuous, but interrupted by strong sensory stimuli; 4: continuous, not interrupted by strong sensory stimuli). In this study, rats with an AIMs≥28 were considered highly dyskinetic, while rats with an AIMs<28 either low or none-dyskinetic.
After chronic L-DOPA treatment on PD rats for 21 days, 42 LID model rats (348 g˜501 g, 15 weeks old) were successfully created with the criteria of total AIM scores (Lo+Li+AX+OI)≥28 points.
AIMs ratings were performed by an investigator who was kept unaware of the pharmacological treatment administered to each rat (experimentally blinded). In order to quantify the severity of the AIMs, rats were observed individually in their standard cages every 20th minute at 20-180 min after an injection of I-DOPA. The AIM's were classified into four subtypes:
Each of the four subtypes are scored on a severity scale from 0 to 4, where 0=absent, 1=present during less than half of the observation time, 2=present for more than half of the observation time, 3=present all the time but suppressible by external stimuli, and 4=present all the time and not suppressible by external stimuli. Axial, limb and orolingual AIMs are found to be modulated in a similar way by all the tested substances.
Rats were tested for AIMs using the sum of locomotive (LO) oraxial (AX), limb (LI), and orolingual (OL) AIM scores per testing session for statistical analyses. […]

For data set [4], the target named is T2, human recombinant dopamine D2 receptor (Homo sapiens, UniProt P14416). Particulars: read-out: D2 affinity Ki ± SEM; cited from earlier work.
The target in data set [5] is T2, human recombinant dopamine D2 receptor. Conditions: saturating concentrations of dopamine; read-out: D2 efficacy IC50 ± SEM; cited from earlier work.
The conditions of data set [6]: human volunteers, cited from earlier work.
Where [7] appears, read: oral administration of buspirone, analyte = label (6-OH-Busp: total, both enantiomers).
The mark [8] stands for this setting: oral administration of racemic 6-OH-Busp, exposure of 6-OH-Busp.

Where two headings read alike, the source gives them in different places.

T2 sequence (P14416 whole entry): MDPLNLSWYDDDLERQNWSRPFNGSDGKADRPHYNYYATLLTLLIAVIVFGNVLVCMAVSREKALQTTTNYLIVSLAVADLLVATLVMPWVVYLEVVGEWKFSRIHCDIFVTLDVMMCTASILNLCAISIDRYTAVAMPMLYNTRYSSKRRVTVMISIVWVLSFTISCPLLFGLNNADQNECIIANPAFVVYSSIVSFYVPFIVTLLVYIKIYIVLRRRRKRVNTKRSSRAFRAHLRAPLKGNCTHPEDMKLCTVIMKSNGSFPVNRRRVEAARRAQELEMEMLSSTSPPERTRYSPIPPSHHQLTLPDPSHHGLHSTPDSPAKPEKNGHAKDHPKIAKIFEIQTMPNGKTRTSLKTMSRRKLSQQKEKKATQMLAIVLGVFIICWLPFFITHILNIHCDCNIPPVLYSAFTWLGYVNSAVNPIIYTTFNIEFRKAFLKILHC
Chain of human recombinant dopamine D3 receptor (P35462 whole entry): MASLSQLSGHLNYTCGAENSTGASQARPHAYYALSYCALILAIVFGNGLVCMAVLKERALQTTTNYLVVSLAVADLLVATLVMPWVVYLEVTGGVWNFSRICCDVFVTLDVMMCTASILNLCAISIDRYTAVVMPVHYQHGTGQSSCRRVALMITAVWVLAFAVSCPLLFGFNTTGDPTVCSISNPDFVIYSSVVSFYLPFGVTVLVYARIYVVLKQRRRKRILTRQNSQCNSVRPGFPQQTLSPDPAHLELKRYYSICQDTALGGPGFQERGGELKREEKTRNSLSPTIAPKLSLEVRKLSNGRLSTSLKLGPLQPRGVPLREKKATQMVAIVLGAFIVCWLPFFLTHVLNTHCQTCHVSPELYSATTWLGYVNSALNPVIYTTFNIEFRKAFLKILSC

Regarding `O=C1CC2(CCCC2)C(O)C(=O)N1CCCCN1CCN(c2ncccn2)CC1` (racemic) [6-OH-Busp], the EC50 in data set [1] (dorsal raphe (presynaptic), read-out: 5-HT1A receptor occupancy EC50, dorsal raphe) is 1 ± 0.3 µM; in data set [1] (hippocampus (postsynaptic), read-out: 5-HT1A receptor occupancy EC50, hippocampus) it was 4 ± 0.6 µM. In addition, the 50% inhibitory concentration (IC50) in data set [2] is 4.9 ± 2.8 µM; in data set [5], 3.1 ± 1.8 µM. The “total AIMs sum” value in data set [3] (Example XII, 0.3, 1 and 3 mg/kg s.c.) is reported as “dose-dependently decreased”. For the same molecule, the “AIMs of LID rats at time points” value in data set [3] (Example XII, 0.3, 1 and 3 mg/kg s.c., 30 to 190 min after L-DOPA injection) was “dose-dependently decreased”; in data set [3] (Example XIII, 1 mg/kg s.c., 50 min and 70 min after L-DOPA injection), “did not significantly decrease”; in data set [3] (Example XIII, 3 mg/kg s.c., 50 to 190 min), “significantly decreased”; in data set [3] (Example XIV, 1 mg/kg s.c. alone, 90 min and 110 min after L-DOPA injection) it was “did not have significant effects”. In data set [3] (Example XII, buspirone 1 mg/kg s.c., 6-OH-Busp 0.3, 1 and 3 mg/kg s.c., vs vehicle), the “AUC of total AIMs from 10 min to 190 min” value is on record as “dose-dependently decreased”. For the same molecule, the inhibition constant Ki in data set [4] was 5.39 ± 0.425 µM. Also, the “half-life (T½)” value in data set [6] (after administration of either parent buspirone or 6-OH-Busp) is listed as “longer than that of buspirone”. Further, the AUC0-INF in data set [6] (setting [7]) is on record as 52.93 ngxh/ml; in data set [6] (setting [8]), 131.52 ngxh/ml. The Cmax in data set [6] (setting [7]) is recorded as 9.12 ng/mL; in data set [6] (setting [8]), 25.63 ng/mL.

The values above are taken from patent US11478476B2 (CONTERA PHARMA APS, priority 2014, dated 2022).
